The subject of this assay is P388 leukemia ip, CD2F1 mice, survival T/C. Description: NCI In Vivo Anticancer Drug Screen. Data for tumor model P388 Leukemia (intraperitoneal) in CD2F1 (CDF1) mice. Conditions: endpoint: median survival time, higher = longer survival. In outline:
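Mice carrying the transplanted tumor received test compound or vehicle. Survival was recorded in each group, and the value is the treated-group measurement divided by that of the vehicle-treated control group.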

[1] abbreviates: dose: 25.0 mg/kg/injection, schedule: Q01DX009 (ip), vehicle: saline with Tween-80.
The mark [2] stands for this setting: dose: 50.0 mg/kg/injection, schedule: Q01DX009 (ip), vehicle: saline with Tween-80.
The mark [3] stands for this setting: dose: 100.0 mg/kg/injection, schedule: Q01DX009 (ip), vehicle: saline with Tween-80.
Where [4] appears, read: dose: 200.0 mg/kg/injection, schedule: Q01DX009 (ip), vehicle: saline with Tween-80.
The mark [5] stands for this setting: dose: 50.0 mg/kg/injection, schedule: Q01DX005 (ip), vehicle: saline with Tween-80.
Setting [6] is: dose: 100.0 mg/kg/injection, schedule: Q01DX005 (ip), vehicle: saline with Tween-80.
Where [7] appears, read: dose: 200.0 mg/kg/injection, schedule: Q01DX005 (ip), vehicle: saline with Tween-80.
Where [8] appears, read: dose: 100.0 mg/kg/injection, schedule: Q01DX009 (ip), vehicle: saline.
Where [9] appears, read: dose: 60.0 mg/kg/injection, schedule: Q01DX005 (ip), vehicle: saline.
Setting [10] is: dose: 120.0 mg/kg/injection, schedule: Q01DX005 (ip), vehicle: saline.
Where [11] appears, read: dose: 50.0 mg/kg/injection, schedule: Q01DX005 (ip), vehicle: saline.
Setting [12] is: dose: 100.0 mg/kg/injection, schedule: Q01DX005 (ip), vehicle: saline.
The mark [13] stands for this setting: dose: 100.0 mg/kg/injection, schedule: Q04DX003 (ip), vehicle: saline.
Where [14] appears, read: dose: 200.0 mg/kg/injection, schedule: Q04DX003 (ip), vehicle: saline.

Molecules are shown by their SMILES. Values joined by “and” are separate entries in the source; they are usually repeats but may differ in a detail not shown here. Equal values may be shown once. Inconclusive results and toxic doses are left out.

`COc1cccc2c1C(=O)c1c(O)c3c(c(O)c1C2=O)C[C@@](O)(C(=O)CO)C[C@@H]3OC1CC(NCc2ccccc2)C(O)C(C)O1` (some centres undefined): the T/C (dose: 0.39 mg/kg/injection, schedule: Q01DX009 (ip), vehicle: water) is 150 % of control; the T/C (dose: 0.78 mg/kg/injection, schedule: Q01DX009 (ip), vehicle: water) is 151 % of control; the T/C (dose: 1.56 mg/kg/injection, schedule: Q01DX009 (ip), vehicle: water) was 153 % of control and 158 % of control; the T/C (dose: 3.13 mg/kg/injection, schedule: Q01DX009 (ip), vehicle: water) was 175 % of control and 194 % of control; the T/C (dose: 3.89 mg/kg/injection, schedule: Q04DX003 (ip), vehicle: water) was 163 % of control; the T/C (dose: 6.25 mg/kg/injection, schedule: Q01DX009 (ip), vehicle: water) is 107 % of control and 224 % of control. Moreover, the T/C was 175 % of control (dose: 6.48 mg/kg/injection, schedule: Q04DX003 (ip), vehicle: water); 201 % of control (dose: 10.8 mg/kg/injection, schedule: Q04DX003 (ip), vehicle: water); 105 % of control (dose: 18.0 mg/kg/injection, schedule: Q04DX003 (ip), vehicle: water); 94 % of control (dose: 30.0 mg/kg/injection, schedule: Q04DX003 (ip), vehicle: water).

Take `CC1(C)CC(=O)C(CC2C(=O)CC(C)(C)CC2=O)C(=O)C1`: the T/C was 87 % of control under setting [1], 97 % of control under setting [2], 103 % of control under setting [3] and 95 % of control under setting [4].

In the case of `COc1cc2c3cc1Oc1c(OC)c(OC)cc4c1[C@@H](Cc1ccc(OC)c(c1OC)Oc1ccc(cc1)C[C@@H]3N(C)CC2)N(C)CC4`, the T/C by setting is: (dose: 3.63 mg/kg/injection, schedule: Q01DX005 (ip), vehicle: Klucel (hydroxypropylcellulose) (HPC)) 103 % of control; (dose: 7.25 mg/kg/injection, schedule: Q01DX005 (ip), vehicle: Klucel (hydroxypropylcellulose) (HPC)) 99 % of control; (dose: 14.5 mg/kg/injection, schedule: Q01DX005 (ip), vehicle: Klucel (hydroxypropylcellulose) (HPC)) 102 % of control; (dose: 29.0 mg/kg/injection, schedule: Q01DX005 (ip), vehicle: Klucel (hydroxypropylcellulose) (HPC)) 93 % of control; (dose: 58.0 mg/kg/injection, schedule: Q01DX005 (ip), vehicle: Klucel (hydroxypropylcellulose) (HPC)) 109 % of control.

`O=C(OC1C2C=CC1C1C3CCC(c4ccccc43)C21)c1ccc([N+](=O)[O-])cc1[N+](=O)[O-]` (centres undefined): the T/C was 103 % of control (dose: 100.0 mg/kg/injection, schedule: Q04DX002 (ip), vehicle: saline); 99 % of control (dose: 200.0 mg/kg/injection, schedule: Q04DX002 (ip), vehicle: saline); 100 % of control (dose: 400.0 mg/kg/injection, schedule: Q04DX002 (ip), vehicle: saline).

Regarding `Cc1ccc2oc(-c3nnc(N)s3)cc(=O)c2c1`, the T/C by setting is: under setting [5], 100 % of control; under setting [6], 100 % of control; under setting [7], 93 % of control.

For `COc1ccc(OC)c2c(=O)cc(C)[nH]c12`, the T/C reads like this: (dose: 16.5 mg/kg/injection, schedule: Q01DX009 (ip), vehicle: saline with Tween-80) 107 % of control and 112 % of control; under setting [1], 107 % of control and 111 % of control and 121 % of control; (dose: 37.5 mg/kg/injection, schedule: Q01DX009 (ip), vehicle: saline with Tween-80) 113 % of control and 124 % of control; under setting [2], 114 % of control; under setting [3], 107 % of control; under setting [4], 107 % of control.

Take `Cc1c(O)cccc1O`: the T/C under setting [8] was 105 % of control.

On to `CCOC(=O)C1C(COCc2ccccc2)C2CCC1(OC)C=C2C` (centres undefined), for which the T/C under setting [5] was 99 % of control, the T/C under setting [6] is 97 % of control and the T/C under setting [7] is 104 % of control.

On to `CC(N)(CCS(=O)CP(=O)(O)O)C(=O)O` (centres undefined), for which the T/C under setting [9] was 100 % of control and the T/C under setting [10] is 94 % of control.

Consider `Nc1nc(=O)[nH]c([O-])c1N=O.Nc1nc(=O)[nH]c([O-])c1N=O.[Ag+].[Ag+]`, for which the T/C was 104 % of control and 86 % of control (dose: 15.0 mg/kg/injection, schedule: Q01DX005 (ip), vehicle: saline with Tween-80); 105 % of control and 89 % of control (dose: 30.0 mg/kg/injection, schedule: Q01DX005 (ip), vehicle: saline with Tween-80).

Turning to `c1ccc(Cn2nnnc2-c2ccccc2)cc1`, the T/C reads like this: (dose: 100.0 mg/kg/injection, schedule: Q04DX003 (ip), vehicle: saline with Tween-80) 100 % of control; (dose: 200.0 mg/kg/injection, schedule: Q04DX003 (ip), vehicle: saline with Tween-80) 96 % of control; (dose: 400.0 mg/kg/injection, schedule: Q04DX003 (ip), vehicle: saline with Tween-80) 88 % of control.

For the compound `CC1=CSCC(=O)N1`, the T/C was 104 % of control under setting [3] and 95 % of control under setting [4].

With `CC(C)NC1(N(C)C)N=C(N(C)C)N=C(N(C)C)O1` (centres undefined), the T/C was 101 % of control under setting [11] and 101 % of control under setting [12].

For `CSc1nc(=S)c2[nH]c(C)nc2[nH]1`, the T/C by setting is: (dose: 6.25 mg/kg/injection, schedule: Q04DX003 (ip), vehicle: saline) 96 % of control; (dose: 12.5 mg/kg/injection, schedule: Q04DX003 (ip), vehicle: saline) 96 % of control; (dose: 25.0 mg/kg/injection, schedule: Q04DX003 (ip), vehicle: saline) 100 % of control; (dose: 50.0 mg/kg/injection, schedule: Q04DX003 (ip), vehicle: saline) 100 % of control.

For the compound `N#Cc1cn(N(CCO)CCO)c(=O)[nH]c1=O`, the T/C (dose: 25.0 mg/kg/injection, schedule: Q01DX005 (ip), vehicle: saline) is 105 % of control; the T/C under setting [11] was 106 % of control; the T/C under setting [12] was 105 % of control; the T/C (dose: 200.0 mg/kg/injection, schedule: Q01DX005 (ip), vehicle: saline) was 103 % of control.

Regarding `CCCCCCNC(C)C`, the T/C is, setting by setting: under setting [11], 104 % of control; under setting [12], 101 % of control.

For `CN(C)C(=O)CC/C=C/C1C=CCCN1Cc1ccccc1` (centres undefined), the T/C runs as follows: (dose: 8.75 mg/kg/injection, schedule: Q01DX005 (ip), vehicle: Klucel (hydroxypropylcellulose) (HPC)) 103 % of control; (dose: 17.5 mg/kg/injection, schedule: Q01DX005 (ip), vehicle: Klucel (hydroxypropylcellulose) (HPC)) 100 % of control; (dose: 35.0 mg/kg/injection, schedule: Q01DX005 (ip), vehicle: Klucel (hydroxypropylcellulose) (HPC)) 100 % of control.

In the case of `O=C(c1ccccc1)N1CCCCC1`, the T/C (dose: 50.0 mg/kg/injection, schedule: Q01DX009 (ip), vehicle: saline) was 95 % of control; the T/C under setting [8] was 100 % of control; the T/C under setting [13] is 110 % of control; the T/C (dose: 200.0 mg/kg/injection, schedule: Q01DX009 (ip), vehicle: saline) was 100 % of control; the T/C under setting [14] was 110 % of control.

`O=C(c1ccccc1)c1c(-c2ccccc2)noc1-c1ccccc1`: the T/C was 109 % of control under setting [13]; 100 % of control under setting [14]; 108 % of control (dose: 400.0 mg/kg/injection, schedule: Q04DX003 (ip), vehicle: saline).

As to `CCN(CC)CCCNc1cc(C)c2cc(OC)ccc2n1`, the T/C runs as follows: (dose: 25.0 mg/kg/injection, schedule: Q01DX001 (ip), vehicle: saline with Tween-80) 99 % of control; (dose: 50.0 mg/kg/injection, schedule: Q01DX001 (ip), vehicle: saline with Tween-80) 97 % of control; (dose: 100.0 mg/kg/injection, schedule: Q01DX001 (ip), vehicle: saline with Tween-80) 90 % of control.

`[CH3][Sn]([CH3])([O]C(=O)CNC(=O)c1ccccc1)[O]C(=O)CNC(=O)c1ccccc1`: the T/C (dose: 0.79 mg/kg/injection, schedule: Q01DX001 (ip), vehicle: Klucel (hydroxypropylcellulose) (HPC)) is 97 % of control; the T/C (dose: 1.56 mg/kg/injection, schedule: Q01DX001 (ip), vehicle: Klucel (hydroxypropylcellulose) (HPC)) is 93 % of control; the T/C (dose: 3.12 mg/kg/injection, schedule: Q01DX001 (ip), vehicle: Klucel (hydroxypropylcellulose) (HPC)) was 100 % of control.

In the case of `CCOC(=O)C1N=C(OCC)C(C)N=C1OCC` (centres undefined), the T/C was 101 % of control under setting [9]; 102 % of control under setting [10]; 100 % of control (dose: 240.0 mg/kg/injection, schedule: Q01DX005 (ip), vehicle: saline).

`Cc1c(NC(=O)Nc2ccc(F)cc2[N+](=O)[O-])c(=O)n(-c2ccccc2)n1C`: the T/C was 109 % of control under setting [2], 112 % of control under setting [3] and 97 % of control under setting [4].

The values above are taken from PubChem BioAssay AID330 (DTP/NCI, 2004).
